Experimental findings from patent US10590086B2, “Pharmaceutical compound” (IOmet Pharma Ltd., priority 2014, dated 2020) are described below.

The structures appear in SMILES notation. Bounds are passed on as bounds.

Test [1] concerns the target T1, IDO (Homo sapiens, UniProt P14902). Put plainly: hIDO biochemical coupled assay. The settings on record: 45 μM L-tryptophan, 17 minutes, room temperature; read-out: hIDO biochemical assay pIC50 (converted).
The target in test [2] is T2, TDO (Homo sapiens, UniProt P48775). As to the kind of experiment: A172 kynurenine cell-based assay. More on the design: This assay utilised cancer cells which expressed either TDO or IDO; endogenous in cells; host or cells: A172 (human glioblastoma). The settings on record: A172 human glioblastoma cells, 48 hours, 500 μM L-tryptophan; read-out: A172 Kynurenine cell based assay pIC50 (converted). In outline:
(§1)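 Readout: […] of cell supernatant 5 min after Erhlich's reagent, reporting kynurenine. Cells: A172 (TDO) or SKOV3 + 500 ng/ml IFN-γ (IDO), 48 h, 37° C, ± compound. Medium: phenol red-free RPMI, 10% FCS, 2 mM L-glutamine, 500 μM L-tryptophan.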

For test [3], the target named is T2, TDO. Put plainly: hTDO biochemical coupled assay. Particulars: 330 μM L-tryptophan, 17 minutes, room temperature; read-out: hTDO biochemical assay pIC50 (converted).
The target in test [4] is T1, IDO. As to the kind of experiment: SKOV3 kynurenine cell-based assay (IDO induced by IFN-γ). More on the design: IDO expression was induced in the SKOV3 cells by the addition of 500 ng/ml IFN-γ; endogenous in cells; host or cells: SKOV3 (human ovarian adenocarcinoma), induced with IFN-γ. The settings on record: SKOV3 human ovarian adenocarcinoma cells, 500 ng/ml IFN-γ, 48 hours, 500 μM L-tryptophan; read-out: SKOV3 Kynurenine cell based assay pIC50 (converted). The method, boiled down:
as §1

T1 sequence (P14902 whole entry): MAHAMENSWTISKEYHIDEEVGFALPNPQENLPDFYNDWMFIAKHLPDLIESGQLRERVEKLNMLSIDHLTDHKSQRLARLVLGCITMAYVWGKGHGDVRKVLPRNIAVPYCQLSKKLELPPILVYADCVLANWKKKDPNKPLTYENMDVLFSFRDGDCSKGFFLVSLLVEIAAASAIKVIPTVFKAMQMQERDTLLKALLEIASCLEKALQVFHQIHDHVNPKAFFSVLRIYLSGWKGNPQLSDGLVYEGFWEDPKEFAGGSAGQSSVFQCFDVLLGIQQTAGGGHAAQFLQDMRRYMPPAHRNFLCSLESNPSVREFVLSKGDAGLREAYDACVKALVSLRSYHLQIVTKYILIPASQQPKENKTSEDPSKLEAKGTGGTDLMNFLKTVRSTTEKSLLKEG
T2 sequence (P48775 whole entry): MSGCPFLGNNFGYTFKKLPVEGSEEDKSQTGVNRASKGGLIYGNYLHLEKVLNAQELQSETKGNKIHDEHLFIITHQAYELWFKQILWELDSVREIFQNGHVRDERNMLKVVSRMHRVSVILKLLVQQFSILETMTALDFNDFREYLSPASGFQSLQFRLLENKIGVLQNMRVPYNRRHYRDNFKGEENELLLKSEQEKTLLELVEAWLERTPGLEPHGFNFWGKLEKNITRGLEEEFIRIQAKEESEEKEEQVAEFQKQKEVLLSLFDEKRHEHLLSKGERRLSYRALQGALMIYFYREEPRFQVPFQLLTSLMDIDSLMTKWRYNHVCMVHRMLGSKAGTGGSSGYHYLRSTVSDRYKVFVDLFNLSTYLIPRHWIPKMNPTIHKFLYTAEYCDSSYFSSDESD

In the case of `CS(=O)(=O)N1CCN(c2cc(Cl)cc3c(N)n[nH]c23)CC1` [Compound 306], the IC50 is more than 100 µM in test [1], 3.24 to 31.6 µM in test [2], more than 100 µM in test [3] and 3.24 to 31.6 µM in test [4].

For the compound `Cc1nc2c(o1)CN(c1cc(C(F)(F)F)cc3[nH]ncc13)CC2(C)C` [Compound 434], the IC50 in test [1] is more than 100 µM; in test [2] it was less than 3.16 µM; in test [3], less than 3.16 µM; in test [4] it was more than 100 µM.

`O=C1NCNC12CCN(c1cc(Cl)cc3[nH]ncc13)CC2` [Compound 397]: the IC50 in test [1] is more than 100 µM; in test [2], less than 3.16 µM; in test [3], less than 3.16 µM; in test [4], more than 100 µM.

For `Clc1cc(N2CCN(c3nccs3)CC2)c2cn[nH]c2c1` [Compound 365], the IC50 in test [1] is more than 100 µM; in test [2], less than 3.16 µM; in test [3] it was less than 3.16 µM; in test [4], 3.24 to 31.6 µM.

Take `CN1CNC(=O)C12CCN(c1cc(Cl)cc3[nH]ncc13)CC2` [Compound 380]: the IC50 was more than 100 µM in test [1], 3.24 to 31.6 µM in test [2], 3.24 to 31.6 µM in test [3] and 3.24 to 31.6 µM in test [4].

`O=C1CCCC2(CCN(c3cc(Cl)cc4[nH]ncc34)CC2)N1` [Compound 216]: the IC50 in test [1] is more than 100 µM; in test [2], less than 3.16 µM; in test [3], less than 3.16 µM; in test [4], 3.24 to 31.6 µM.

`CS(=O)(=O)N1CCN(c2cccc3[nH]ncc23)CC1` [Compound 10]: the IC50 was more than 100 µM in test [1], 3.24 to 31.6 µM in test [2], 3.24 to 31.6 µM in test [3] and 32.4 to 100 µM in test [4].

On to `CN(C1CCN(c2cc(Cl)cc3[nH]ncc23)CC1(C)C)S(C)(=O)=O` (centres unmarked) [Compound 449], for which the IC50 is 3.24 to 31.6 µM in test [1], less than 3.16 µM in test [2], less than 3.16 µM in test [3] and 3.24 to 31.6 µM in test [4].

As to `CN1C(=O)[C@@H]2CC[C@H]1CN(c1cc(Cl)cc3[nH]ncc13)C2` [Compound 435], the IC50 in test [1] is 3.24 to 31.6 µM; in test [2], less than 3.16 µM; in test [3], less than 3.16 µM; in test [4], more than 100 µM.

`OC(c1ccccc1)c1cc(Cl)cc2[nH]ncc12` (centres unmarked) [Compound 271]: the IC50 in test [1] is more than 100 µM; in test [2] it was less than 3.16 µM; in test [3], less than 3.16 µM; in test [4], 32.4 to 100 µM.

As for `CS(=O)(=O)NCC1CCCN(c2cc(Cl)cc3[nH]ncc23)C1` (centres unmarked) [Compound 284], the IC50 was more than 100 µM in test [1], 3.24 to 31.6 µM in test [2], less than 3.16 µM in test [3] and 32.4 to 100 µM in test [4].

Turning to `COC(C)c1cc(Cl)cc2[nH]ncc12` (centres unmarked) [Compound 287], the IC50 in test [1] is more than 100 µM; in test [2] it was 3.24 to 31.6 µM; in test [3], 3.24 to 31.6 µM; in test [4] it was more than 100 µM.

For `O=C1NC(=O)C2(CCN(c3cc(Br)cc4[nH]ncc34)CC2)N1` [Compound 290], the IC50 in test [1], in test [2], in test [3] and in test [4] was less than 3.16 µM each time.

`CS(=O)(=O)N1CCC2(CCN(c3cc(Cl)cc4[nH]ncc34)CC2)C1` [Compound 349]: the IC50 in test [1] is 32.4 to 100 µM; in test [2], less than 3.16 µM; in test [3] it was less than 3.16 µM; in test [4], 32.4 to 100 µM.

On to `Clc1cc(N2CCc3cnccc3C2)c2cn[nH]c2c1` [Compound 343], for which the IC50 in test [1] was more than 100 µM; in test [2], less than 3.16 µM; in test [3], less than 3.16 µM; in test [4], 32.4 to 100 µM.

On to `O=C1NC(=O)C2(CCN(c3cc(Cl)cc4[nH]ncc34)CC2)N1` [Compound 137], for which the IC50 in test [1], in test [2], in test [3] and in test [4] was less than 3.16 µM in each case.

With `COc1cc(S(C)(=O)=O)ccc1-c1cc(Cl)cc2[nH]ncc12` [Compound 266], the IC50 in test [1] is more than 100 µM; in test [2], less than 3.16 µM; in test [3], less than 3.16 µM; in test [4], 3.24 to 31.6 µM.
